Active and inactive are the calls of the source. No cut-off for these calls is given here.
Tests used:
[1] = molecular target: T1, DNA topoisomerase 2-alpha (Homo sapiens, UniProt P11388); assay: Inhibition of human topoisomerase-2alpha-mediated kDNA decatenation at 100 uM after 30 mins by agarose gel electrophoresis
PC-3 = assay: Cytotoxicity against human PC3 cells assessed as cell survival after 48 hrs by MTT assay; type: functional; conditions: PC-3, 48 h, read-out: LC50 (the source's name)
[2] = molecular target: T1, DNA topoisomerase 2-alpha; assay: Inhibition of human topoisomerase-2alpha-mediated supercoiled pRYG DNA relaxation at 100 uM after 30 mins by agarose gel electrophoresis
Nucleic Acid [3] = assay: Binding affinity to Escherichia coli plasmid DNA assessed as intercalation at 100 uM after 20 mins by agarose gel electrophoresis; type: nucleic-acid assay
Nucleic Acid [4] = assay: Binding affinity to Escherichia coli plasmid DNA assessed as intercalation at 1 ug/mL after 20 mins by agarose gel electrophoresis; type: nucleic-acid assay
[5] = molecular target: T1, DNA topoisomerase 2-alpha; assay: Inhibition of human topoisomerase-2alpha-mediated kDNA decatenation after 30 mins by agarose gel electrophoresis

T1 sequence (P11388 whole entry): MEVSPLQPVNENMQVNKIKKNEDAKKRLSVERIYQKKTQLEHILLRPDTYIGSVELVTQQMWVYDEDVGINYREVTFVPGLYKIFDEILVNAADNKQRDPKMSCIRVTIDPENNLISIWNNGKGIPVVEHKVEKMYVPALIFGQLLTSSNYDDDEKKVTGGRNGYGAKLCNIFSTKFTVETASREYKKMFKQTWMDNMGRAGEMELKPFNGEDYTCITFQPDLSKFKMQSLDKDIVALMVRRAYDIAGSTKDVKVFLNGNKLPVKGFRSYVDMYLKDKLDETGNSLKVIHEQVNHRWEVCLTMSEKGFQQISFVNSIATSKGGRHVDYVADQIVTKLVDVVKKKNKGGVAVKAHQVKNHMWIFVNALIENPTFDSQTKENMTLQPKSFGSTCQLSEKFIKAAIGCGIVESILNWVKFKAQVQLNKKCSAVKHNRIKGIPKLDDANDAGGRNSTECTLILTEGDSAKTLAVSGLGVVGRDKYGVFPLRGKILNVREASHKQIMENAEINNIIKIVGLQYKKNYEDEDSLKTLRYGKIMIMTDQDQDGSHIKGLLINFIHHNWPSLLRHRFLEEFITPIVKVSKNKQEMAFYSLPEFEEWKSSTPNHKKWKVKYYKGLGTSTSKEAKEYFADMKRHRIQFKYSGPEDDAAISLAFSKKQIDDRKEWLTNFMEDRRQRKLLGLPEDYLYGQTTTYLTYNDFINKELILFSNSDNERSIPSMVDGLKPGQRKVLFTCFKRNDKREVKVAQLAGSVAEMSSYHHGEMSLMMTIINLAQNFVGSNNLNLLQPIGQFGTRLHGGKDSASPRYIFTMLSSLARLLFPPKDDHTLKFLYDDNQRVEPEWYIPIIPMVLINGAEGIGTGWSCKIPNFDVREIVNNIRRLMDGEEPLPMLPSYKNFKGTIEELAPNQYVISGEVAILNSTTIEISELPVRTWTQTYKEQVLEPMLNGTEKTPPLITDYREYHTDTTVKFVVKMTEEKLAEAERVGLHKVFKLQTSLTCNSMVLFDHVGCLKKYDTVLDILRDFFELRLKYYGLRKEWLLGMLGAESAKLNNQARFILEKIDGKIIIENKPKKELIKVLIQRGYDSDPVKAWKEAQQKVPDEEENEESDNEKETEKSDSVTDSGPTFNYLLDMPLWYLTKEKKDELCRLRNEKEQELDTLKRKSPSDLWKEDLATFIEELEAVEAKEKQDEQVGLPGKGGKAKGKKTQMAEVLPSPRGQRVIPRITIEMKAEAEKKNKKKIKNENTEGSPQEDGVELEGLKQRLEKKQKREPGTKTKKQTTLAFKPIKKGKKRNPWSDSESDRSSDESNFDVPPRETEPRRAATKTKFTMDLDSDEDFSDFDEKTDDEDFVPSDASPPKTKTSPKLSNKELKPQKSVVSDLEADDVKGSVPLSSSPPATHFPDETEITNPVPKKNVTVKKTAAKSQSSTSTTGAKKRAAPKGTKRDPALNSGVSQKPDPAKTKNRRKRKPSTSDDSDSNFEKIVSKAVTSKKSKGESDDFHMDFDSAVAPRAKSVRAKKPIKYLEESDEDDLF

O=Cc1coc2ccc(Cl)cc2c1=O
inhibition [1]: Active | CC50 (PC-3): 5.7 µM | inhibition [2]: Active | Activity (Nucleic Acid [3]): inactive

CC[n+]1c(-c2ccccc2)c2cc(N)ccc2c2ccc(N)cc21
Activity (Nucleic Acid [4]): Active

CN(c1ccccc1)c1oc2ccccc2c(=O)c1C=O
CC50 (PC-3): 0.5 µM | IC50 [5]: 67.9 µM | inhibition [2]: Active | Activity (Nucleic Acid [3]): inactive

COc1cc([C@@H]2c3cc4c(cc3[C@@H](O[C@@H]3O[C@@H]5CO[C@@H](C)O[C@H]5[C@H](O)[C@H]3O)[C@H]3COC(=O)[C@H]23)OCO4)cc(OC)c1O [ETOPOSIDE]
inhibition [1]: Active | CC50 (PC-3): 7.5 µM | inhibition [2]: Active | Activity (Nucleic Acid [3]): inactive

O=Cc1c(Nc2ccccc2)oc2ccccc2c1=O
inhibition [1]: Active | CC50 (PC-3): 8.2 µM | inhibition [2]: Active | Activity (Nucleic Acid [3]): inactive

O=Cc1c(Nc2ccccc2)oc2ccc(F)cc2c1=O
inhibition [1]: Active | CC50 (PC-3): 8.6 µM | inhibition [2]: Active | Activity (Nucleic Acid [3]): inactive

O=Cc1c(Nc2ccccc2)oc2cc(Cl)ccc2c1=O
inhibition [1]: Active | CC50 (PC-3): 2.5 µM | inhibition [2]: Active | Activity (Nucleic Acid [3]): inactive

O=Cc1c(Nc2ccccc2)oc2ccc(Cl)cc2c1=O
inhibition [1]: Active | CC50 (PC-3): 8.3 µM | inhibition [2]: Active | Activity (Nucleic Acid [3]): inactive

CN(c1ccccc1)c1oc2ccc(Cl)cc2c(=O)c1C=O
inhibition [1]: Active | CC50 (PC-3): 2.1 µM | inhibition [2]: Active | Activity (Nucleic Acid [3]): inactive

From ChEMBL document CHEMBL3217668, “3-Formylchromone based topoisomerase II inhibitors: discovery of potent leads” (Medchemcomm, 2013)
